Paper PMC10138721, “Investigation of the Compatibility between Warheads and Peptidomimetic Sequences of Protease Inhibitors—A Comprehensive Reactivity and Selectivity Study” (International Journal of Molecular Sciences, 2023)
Entries after “also recorded” stand apart in the source; their conditions may differ. Read-outs that look alike come from different tables or passages of the source.

Columns and labels:
[1] = biological target: SARS-CoV-2 main protease (M^pro) (Severe acute respiratory syndrome coronavirus 2, UniProt P0DTD1); assay: Fluorometric (FRET) inhibition assay, SARS-CoV-2 M^pro; assay type: biochemical; details: for activity against M^pro, in words: initial screen at 20 µM, cut-off 80% inhibition
[2] = biological target: T1, human cathepsin S (CatS) (Homo sapiens, UniProt P25774); assay: Fluorometric inhibition assay, cathepsin S; assay type: biochemical; details: for kinact: read-out: kinact, CatS
T1 construct: purchased Sigma Aldrich

[3] = biological target: rhodesain (Trypanosoma brucei rhodesiense, UniProt Q95PM0); assay: Fluorometric inhibition assay, rhodesain; assay type: biochemical; details: for kinact: read-out: kinact, Rhodesain
[4] = Reactivity test of warhead probes with PhEtSH without base (NMR/LC-MS); assay type: physicochemical; details: non-basic conditions
Text: (§1) To investigate the reactivity between the different warheads towards the three classes of proteases (serine, threonine and cysteine proteases), their behavior in model systems under the same reaction conditions (solvent, nucleophile and base) using either NMR or LC-MS analysis was investigated. We used reactivity probes with a Boc-L-Leu-(warhead) sequence. Leucin was chosen as a P1 amino acid to minimize influences of the side chain and due to synthetic accessibility. 2-Phenylethanethiol was used as a model nucleophile to mimic the thiol moiety of cysteine proteases, and sodium ethoxide was used as a serine/threonine replacement. DMSO-d6 was used as solvent. Under these conditions, the nucleophile is deprotonated, simulating the activated serine or threonine in the catalytic triad of serine and threonine proteases, while ethanol as protonated alcohol species turned out to be unreactive in preliminary test reactions. The reactivity tests using 2-phenylethanthiol were carried out in the presence and absence of triethylamine as a base. This allowed for a reactivity comparison of the warheads towards protonated and deprotonated nucleophilic thiol species. Generating a deprotonated thiol species in the presence of triethylamine simulates the deprotonated cysteine in the catalytic dyad of cysteine proteases. Scheme 8 illustrates the reaction of the reactivity assay with both model nucleophiles and the vinyl sulfone moiety 109 as an example.
(§2) The reactivity tests of all Michael acceptors, 109, 110, 111 and 112, the α-ketobenzothiazole 115 and nitrile 117 were investigated using an NMR-based analysis method, while the β-lactam 108 reactivity was investigated via LC-MS, due to its lack of proton signals, which could be used for evaluation of the reactivity in the ^1H-NMR studies, and the irreversible reaction mechanism, which allowed the LC-MS analysis. […] Formation of the expected adducts with the nitrile 117 (PhEtSH/PhEtS^–/EtONa), the α-ketobenzothiazole 115 (PhEtSH/PhEtS^–) and the nitroalkene 111 (EtONa) could not be observed. This may have been due to the covalent reversible reaction mechanism of the nitrile and α-ketobenzothiazole and the overall difficult ionization of the specific compounds by an electron spray ionization mass spectrometer.
(§3) Method A (NMR): ^1H-NMR spectra were recorded for the respective warhead and nucleophile mixture, before the addition of the nucleophile (0 min) and after 5, 30, 60, 120 and 240 min reaction time. For quantification, the double bond-signals (doublet/doublet of doublets, around 7.4–6.7 ppm) of the Michael acceptors were integrated relative to 1,3-dioxolane as an internal standard. The acetal CH2 signal of the internal standard at 5.3 ppm was used as a reference.
(§4) The α-ketobenzothiazole 115 and nitrile 117 were similarly analyzed by ^13C-NMR. Therefore, the corresponding ^13C-leucin derivates were synthesized (Scheme 7). Quantifications of the reactions were carried out by using the integral of the carbonyl carbon atom signal at 195 ppm for the α-ketobenzothiazole and 120 ppm for the nitrile moiety. The reference signal of DMSO-d6 was set to 39.52 ppm.
(§5) Method B (LC-MS): The reactivity of the β-lactam test compound 108 with the nucleophiles was investigated using an LC-MS-based method. To quantify the conversion, the AUCs were determined at 254 nm. In Figure 3, the UV spectra of the test reaction of the β-lactam 108 with EtONa are shown exemplarily.
(§6) The β-lactam 108 (0.07 mmol, 1eq) was solved in DMSO-d6 (0.5 mL). The reaction was measured in time intervals before (0 min), 5, 30, 60, 120 and 240 mins after the addition of the corresponding nucleophile (PhEtSH/EtONa, 2 eq) in presence of Et3N (2 eq) or not. In case of PhEtSH as the nucleophile the reaction got quenched by pouring 10 µL of the reaction mixture into a solution of 25 mM TRIS (pH 7.00) and 27 mM maleimide in a 1:1 mixture of acetonitrile/H2O (990 µL). For the reaction with EtONa as the nucleophile, the reaction solution […]

[5] = Reactivity test of warhead probes with EtONa (NMR/LC-MS); assay type: physicochemical; details: DMSO-d6, up to 240 min
Text: as §1, §2, §3, §4, §5, §6

[6] = Reactivity test of warhead probes with PhEtSH + Et3N (NMR/LC-MS); assay type: physicochemical
Text: as §1, §2, §3, §4, §5, §6

[7] = Table S1; a) calculated from IC50 with Cheng–Prusoff, irreversible inhibitors from kobs fits, n.a. = not active at 20 µM, read-out: Ki, Rhodesain
[8] = Table S1, irreversible inhibitors
[9] = Table S1; a) calculated from IC50 with Cheng–Prusoff, irreversible inhibitors from kobs fits, n.a. = not active at 20 µM, * unstable towards DTT, read-out: Ki, CatS

Chain of rhodesain (Q95PM0 entry or part of it): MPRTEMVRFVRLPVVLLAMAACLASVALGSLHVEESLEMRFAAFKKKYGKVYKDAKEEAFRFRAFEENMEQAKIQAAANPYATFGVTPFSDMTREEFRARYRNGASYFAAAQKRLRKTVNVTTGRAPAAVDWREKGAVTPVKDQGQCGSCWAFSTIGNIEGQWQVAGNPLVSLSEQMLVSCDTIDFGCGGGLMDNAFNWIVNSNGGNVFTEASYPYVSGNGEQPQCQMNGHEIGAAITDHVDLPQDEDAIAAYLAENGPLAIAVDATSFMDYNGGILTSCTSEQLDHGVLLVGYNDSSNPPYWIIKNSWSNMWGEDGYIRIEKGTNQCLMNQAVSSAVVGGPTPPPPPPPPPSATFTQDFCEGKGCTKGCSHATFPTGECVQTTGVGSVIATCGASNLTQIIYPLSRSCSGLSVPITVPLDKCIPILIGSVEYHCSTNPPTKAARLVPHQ
T1 sequence (P25774 115-331): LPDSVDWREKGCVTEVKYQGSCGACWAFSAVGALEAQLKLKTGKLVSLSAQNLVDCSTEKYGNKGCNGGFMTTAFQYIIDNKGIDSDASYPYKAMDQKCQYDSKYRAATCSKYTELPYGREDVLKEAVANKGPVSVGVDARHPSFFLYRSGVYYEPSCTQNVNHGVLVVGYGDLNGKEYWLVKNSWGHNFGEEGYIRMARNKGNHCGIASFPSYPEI

COc1cccc2[nH]c(C(=O)N[C@@H](CC(C)C)C(=O)N[C@@H](C[C@@H]3CCNC3=O)C(=O)NC3CN(c4ccccc4)C3=O)cc12 (stereo partly shown) [compound 96]
activity against M^pro, in words [1]: inactive at 20 µM

O=C(NC(COCc1ccccc1)C(=O)c1nc2ccccc2s1)C(CC1CCCCC1)NC(=O)N1CCOCC1 (stereo not shown) [compound 42]
Ki ([2]; Ki, CatS): 233 ± 24 nM
Ki ([2]; pKi, Cathepsin S inhibition): 316 nM
activity against rhodesain, in words [3]: submicromolar affinity
Ki ([3]; Ki, Rhodesain): 324 ± 89 nM

CC(=O)NCC(=O)NC(C(=O)N[C@@H](C)C(=O)N[C@H](/C=C(\F)S(=O)(=O)c1ccccc1)CCCNC(=N)N)[C@H](C)O (stereo partly shown) [compound 107]
activity against CatS, in words [2]: not active at 20 µM
activity against rhodesain, in words [3]: inactive

O=C(N[C@@H](Cc1ccccc1)C(=O)N[C@H](/C=C/S(=O)(=O)c1ccccc1)CCc1ccccc1)OCc1ccccc1 [compound 16]
Ki ([2]; pKi, Cathepsin S inhibition): 1 nM
kinact [2]: 0.0037 ± 0.0006 s⁻¹
Ki ([3]; Ki, Rhodesain): 20 ± 2 nM
Ki ([3]; pKi, Rhodesain inhibition): 20 nM
kinact [3]: 0.005 ± 0.0001 s⁻¹

O=C(N[C@@H](Cc1ccccc1)C(=O)N[C@@H](CCc1ccccc1)C(=O)c1nc2ccccc2s1)OCc1ccccc1 [compound 18]
activity against rhodesain, in words [3]: inactive at 20 µM

CC(C)C[C@H](NC(=O)OC(C)(C)C)[13C](N)=O [compound 116]
time until equilibrium was reached with PhEtSH ([4]; DMSO-d6): 5 min

CC(C)CC(/C=C(\F)S(=O)(=O)c1ccccc1)NC(=O)OC(C)(C)C (stereo not shown) [compound 110]
reactivity with EtONa, in words [5]: No conversion
maximum conversion with PhEtSH + Et3N ([6]; DMSO-d6, after 240 min): 86%
reactivity with PhEtSH + Et3N (deprotonated thiol), in words ([6]; DMSO-d6, up to 240 min): high reactivity
reactivity with PhEtSH (protonated thiol), in words ([4]; DMSO-d6, up to 240 min): conversion was not observed; also recorded: missing reactivity

CCOC(=O)/C=C/C(=O)[C@H](C[C@@H]1CCNC1=O)NC(=O)[C@H](CC(C)C)NC(=O)c1cc2c(OC)cccc2[nH]1 [compound 81]
activity against CatS, in words ([2]; initial screen at 20 µM, cut-off 80% inhibition): essentially inactive
Ki [3, 7]: 99 ± 24 nM
kinact [3, 8]: 0.006 ± 0.0009 s⁻¹

N#C[C@H](CCc1ccccc1)NC(=O)[C@H](Cc1ccccc1)NC(=O)OCc1ccccc1 [compound 25]
Ki ([2]; Ki, CatS): 136 ± 12 nM
Ki ([3]; Ki, Rhodesain): 88 ± 17.4 nM

COc1cccc2[nH]c(C(=O)N[C@@H](CC(C)C)C(=O)N[C@H](/C=C/S(=O)(=O)c3ccccc3)C[C@@H]3CCNC3=O)cc12 [compound 93]
Ki [2, 9]: 330 ± 65 nM
kinact [2, 8]: 0.0087 ± 0.0001 s⁻¹
Ki ([2]; calculated from Ki, –log10(Ki/M), read-out: pKi, Cathepsin S inhibition (converted)): 398 nM
Ki [1]: 3530 ± 1110 nM
activity against M^pro, in words [1]: displayed inhibitory activity
kinact ([1]; read-out: kinact, MPro): 0.0137 ± 0.0061 s⁻¹
Ki [3, 7]: 2000 ± 604 nM
kinact [3, 8]: 0.029 ± 0.008 s⁻¹

O=C(NC(C=CS(=O)(=O)c1ccccc1)COCc1ccccc1)C(CC1CCCCC1)NC(=O)N1CCOCC1 (stereo not shown) [compound 35]
Ki ([2]; pKi, Cathepsin S inhibition): 3.16 nM
kinact [2]: 0.0202 ± 0.0006 s⁻¹
Ki ([3]; Ki, Rhodesain): 22 ± 2 nM
kinact [3]: 0.006 ± 0.0004 s⁻¹

COc1cccc2[nH]c(C(=O)N[C@@H](CC(C)C)C(=O)N[C@@H](C[C@@H]3CCNC3=O)C(=O)c3nc4ccccc4s3)cc12 [compound 90]
activity against M^pro, in words [1]: displayed inhibitory activity

O=C(NC(C=C[N+](=O)[O-])COCc1ccccc1)C(CC1CCCCC1)NC(=O)N1CCOCC1 (stereo not shown) [compound 49]
Ki ([2]; Ki, CatS): 12 ± 1 nM
Ki ([3]; pKi, Rhodesain inhibition): 2 nM

O=C(NC(C=C(F)S(=O)(=O)c1ccccc1)COCc1ccccc1)C(CC1CCCCC1)NC(=O)N1CCOCC1 (stereo not shown) [compound 36]
Ki ([2]; Ki, CatS): 3210 ± 612 nM

COc1cccc2[nH]c(C(=O)N[C@@H](CC(C)C)C(=O)N[C@H](/C=C(\F)S(=O)(=O)c3ccccc3)C[C@@H]3CCNC3=O)cc12 [compound 94]
Ki [2, 9]: 1350 ± 90 nM
Ki [1]: 517 ± 33 nM
activity against M^pro, in words [1]: displayed inhibitory activity
Ki [3, 7]: 217 ± 31 nM

COc1cccc2[nH]c(C(=O)N[C@@H](CC(C)C)C(=O)N[C@H](/C=C/[N+](=O)[O-])C[C@@H]3CCNC3=O)cc12 [compound 88]
Ki [2, 9]: 388 ± 277 nM
Ki [1]: 2200 ± 184 nM
activity against M^pro, in words [1]: displayed inhibitory activity
Ki ([3]; calculated from Ki, –log10(Ki/M), read-out: pKi, Rhodesain inhibition (converted)): 2 nM

CC(=O)NCC(=O)NC(C(=O)N[C@@H](C)C(=O)N[C@H](/C=C/S(=O)(=O)c1ccccc1)CCCNC(=N)N)[C@H](C)O (stereo partly shown) [compound 106]
activity against CatS, in words [2]: not active at 20 µM
activity against rhodesain, in words [3]: inactive

O=C(N[C@@H](Cc1ccccc1)C(=O)N[C@H](/C=C/[N+](=O)[O-])CCc1ccccc1)OCc1ccccc1 [compound 13]
Ki ([2]; Ki, CatS): 201 ± 93 nM
Ki ([3]; Ki, Rhodesain): 0.06 ± 0.006 nM

COc1cccc2[nH]c(C(=O)N[C@@H](CC(C)C)C(=O)N[C@H](C#N)C[C@@H]3CCNC3=O)cc12 [compound 84]
Ki [2, 9]: 104 ± 9 nM
activity against M^pro, in words [1]: displayed inhibitory activity
Ki [3, 7]: 42 ± 5 nM

CCOC(=O)/C=C/C(=O)[C@H](CCc1ccccc1)NC(=O)[C@H](Cc1ccccc1)NC(=O)OCc1ccccc1 [compound 22]
Ki ([2]; Ki, CatS): 18 ± 3 nM
kinact [2]: 0.0022 ± 0.0001 s⁻¹
Ki ([3]; Ki, Rhodesain): 79 ± 7 nM
kinact [3]: 0.008 ± 0.001 s⁻¹

O=C(NC1CN(c2ccccc2)C1=O)C(COCc1ccccc1)NC(=O)C(CC1CCCCC1)NC(=O)N1CCOCC1 (stereo not shown) [compound 45]
Ki ([2]; Ki, CatS): 860 ± 130 nM
kinact [2]: 0.00046 ± 2e-05 s⁻¹

O=C(N[C@@H](Cc1ccccc1)C(=O)N[C@@H](CCc1ccccc1)C(=O)N[C@H]1CN(c2ccccc2)C1=O)OCc1ccccc1 [compound 24]
activity against rhodesain, in words [3]: inactive at 20 µM

N#CC(COCc1ccccc1)NC(=O)C(CC1CCCCC1)NC(=O)N1CCOCC1 (stereo not shown) [compound 30]
Ki ([3]; Ki, Rhodesain): 21 ± 2 nM

CC(C)C[C@@H](/C=C/S(=O)(=O)c1ccccc1)NC(=O)[C@H](Cc1ccccc1)NC(=O)c1cnccn1 [compound 58]
Ki ([2]; Ki, CatS): 126 ± 71 nM
kinact [2]: 0.013 ± 0.002 s⁻¹
Ki ([3]; Ki, Rhodesain): 331 ± 41 nM
kinact [3]: 0.019 ± 0.001 s⁻¹

CCOC(=O)C=CC(=O)C(COCc1ccccc1)NC(=O)C(CC1CCCCC1)NC(=O)N1CCOCC1 (stereo not shown) [compound 40]
Ki ([2]; Ki, CatS): 22 ± 4 nM
kinact [2]: 0.0023 ± 7e-05 s⁻¹
Ki ([3]; Ki, Rhodesain): 35 ± 9 nM
kinact [3]: 0.003 ± 0.0001 s⁻¹

O=C(N[C@@H](Cc1ccccc1)C(=O)N[C@H](/C=C(\F)S(=O)(=O)c1ccccc1)CCc1ccccc1)OCc1ccccc1 [compound 17]
Ki ([2]; Ki, CatS): 966 ± 104 nM
Ki ([2]; pKi, Cathepsin S inhibition): 1000 nM
Ki ([3]; Ki, Rhodesain): 3570 ± 437 nM
